Measurements taken from ChEMBL document CHEMBL5550196, “Design, synthesis, and anticancer assessment of structural analogues of (E)-1-((3,4,5-trimethoxybenzylidene)amino)-4-(3,4,5-trimethoxyphenyl)imidazo[1,2-a]quinoxaline-2-carbonitrile (6b), an imidazo[1,2-a]quinoxaline-based non-covalent EGFR inhibitor” (RSC Med Chem, 2024).
Activity calls are given as the source filed them. The rule behind the calls is not given here.

Assays:
MDA-MB-231 = experiment: cells; details: Homo sapiens, MDA-MB-231, 48 h
A549 [1] = experiment: cells; details: Homo sapiens, A549, 48 h
MCF7 = experiment: cells; details: Homo sapiens, MCF7, 48 h
A549 [2] = experiment: Downregulation of KRAS gene expression in human A549 cells by SYBR green dye based qPCR analysis; type: functional, cell-based
A549 [3] = experiment: Downregulation of MAP2K gene expression in human A549 cells by SYBR green dye based qPCR analysis; type: functional, cell-based
A549 [4] = experiment: Downregulation of EGFR gene expression in human A549 cells by SYBR green dye based qPCR analysis; type: functional, cell-based
A549 [5] = experiment: Inhibition of oxidative stress in human A549 cells assessed as reduction in ROS production at 1 to 5 uM by DCFH-DA staining based microplate reader analysis; type: functional, cell-based; details: dose 1-5 µM
A549 [6] = experiment: Induction of mitochondrial membrane hyperpolarization in human A549 cells at 1 to 5 uM by JC-1 staining based fluorescence microplate reader assay; type: functional, cell-based; details: dose 1-5 µM
[7] = molecular target: T1, Epidermal growth factor receptor (Homo sapiens, UniProt P00533); experiment: Inhibition of EGFR (unknown origin) mediated phosphorylation incubated for 2 hrs in presence of ATP by Z-LYTE assay
[8] = molecular target: T1, Epidermal growth factor receptor; details: dose 200.0 nM, time 2.0 hrs

T1 sequence (P00533 whole entry): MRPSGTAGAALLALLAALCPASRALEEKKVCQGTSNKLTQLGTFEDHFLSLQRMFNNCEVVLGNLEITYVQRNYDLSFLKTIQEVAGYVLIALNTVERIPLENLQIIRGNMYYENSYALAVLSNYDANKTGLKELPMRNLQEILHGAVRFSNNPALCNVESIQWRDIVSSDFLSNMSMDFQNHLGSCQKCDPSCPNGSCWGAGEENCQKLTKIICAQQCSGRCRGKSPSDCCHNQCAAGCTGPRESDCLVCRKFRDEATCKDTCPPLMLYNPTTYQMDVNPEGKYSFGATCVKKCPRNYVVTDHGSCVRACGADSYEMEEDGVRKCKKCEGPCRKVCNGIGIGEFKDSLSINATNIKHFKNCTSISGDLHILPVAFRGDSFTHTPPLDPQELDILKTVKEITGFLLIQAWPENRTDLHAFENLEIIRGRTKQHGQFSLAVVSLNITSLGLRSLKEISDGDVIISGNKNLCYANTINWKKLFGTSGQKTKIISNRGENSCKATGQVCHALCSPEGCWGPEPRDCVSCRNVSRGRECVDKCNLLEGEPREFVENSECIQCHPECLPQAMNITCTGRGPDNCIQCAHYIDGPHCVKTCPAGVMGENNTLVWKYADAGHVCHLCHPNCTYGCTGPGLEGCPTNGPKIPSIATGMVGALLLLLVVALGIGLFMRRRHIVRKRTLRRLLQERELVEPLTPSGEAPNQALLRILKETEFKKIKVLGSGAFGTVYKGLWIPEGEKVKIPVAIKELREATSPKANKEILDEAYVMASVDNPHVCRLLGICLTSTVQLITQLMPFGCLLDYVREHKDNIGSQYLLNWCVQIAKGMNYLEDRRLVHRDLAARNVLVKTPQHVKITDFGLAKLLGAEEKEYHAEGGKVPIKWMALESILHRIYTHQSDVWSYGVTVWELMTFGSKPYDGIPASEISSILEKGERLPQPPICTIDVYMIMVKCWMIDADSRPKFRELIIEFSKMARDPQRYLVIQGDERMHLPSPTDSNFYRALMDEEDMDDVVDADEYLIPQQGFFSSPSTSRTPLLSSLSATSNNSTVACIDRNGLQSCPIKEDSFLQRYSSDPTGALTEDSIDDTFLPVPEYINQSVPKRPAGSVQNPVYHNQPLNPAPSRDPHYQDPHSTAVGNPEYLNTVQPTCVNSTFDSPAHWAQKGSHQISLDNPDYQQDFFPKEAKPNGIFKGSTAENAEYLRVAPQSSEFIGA

| SMILES | IC50 (MDA-MB-231) [µM] | IC50 (A549 [1]) [µM] | IC50 (MCF7) [µM] | IC50 [7] [nM] | inhibition [8] [%] | Activity (A549 [2]) | Activity (A549 [3]) | Activity (A549 [4]) | inhibition (A549 [5]) | Activity (A549 [6]) |
| --- | --- | --- | --- | --- | --- | --- | --- | --- | --- | --- |
| COc1cc(-c2nc3ccccc3n3c(/N=C/c4cc(F)ccc4[N+](=O)[O-])c(C#N)nc23)cc(OC)c1OC | 11.4 | 3.25 | 9.99 | – | – | – | – | – | – | – |
| C#Cc1cccc(Nc2ncnc3cc(OCCOC)c(OCCOC)cc23)c1 | – | – | – | – | – | Active | Active | Active | – | – |
| COc1cc(-c2nc3ccccc3n3c(/N=C/c4c[nH]c5ccccc45)c(C#N)nc23)cc(OC)c1OC | > 25 | > 25 | 8.99 | – | – | – | – | – | – | – |
| COc1cc(-c2nc3ccccc3n3c(/N=C/c4ccsc4)c(C#N)nc23)cc(OC)c1OC | > 25 | 1.34 | 14.3 | – | – | Active | Active | Active | Active | Active |

Second part, led by results:

| IC50 (MDA-MB-231) [µM] | IC50 (A549 [1]) [µM] | IC50 (MCF7) [µM] | IC50 [7] [nM] | inhibition [8] [%] | SMILES | Activity (A549 [2]) | Activity (A549 [3]) | Activity (A549 [4]) | inhibition (A549 [5]) | Activity (A549 [6]) |
| --- | --- | --- | --- | --- | --- | --- | --- | --- | --- | --- |
| 8.66 | 4.27 | 23.9 | – | – | COc1cc(-c2nc3ccccc3n3c(/N=C/c4cccnc4)c(C#N)nc23)cc(OC)c1OC | – | – | – | – | – |
| 8.88 | 16.5 | 13.1 | – | – | COc1cc(-c2nc3ccccc3n3c(/N=C/c4ccncc4)c(C#N)nc23)cc(OC)c1OC | – | – | – | – | – |
| 6.41 | 13.2 | 24 | – | – | COc1cc(-c2nc3ccccc3n3c(/N=C/c4ccc(N(C)C)cc4)c(C#N)nc23)cc(OC)c1OC | – | – | – | – | – |
| 5.77 | 3.53 | 13.6 | 75.9 | > 50 | COc1cccc(/C=N/c2c(C#N)nc3c(-c4cc(OC)c(OC)c(OC)c4)nc4ccccc4n23)c1 | Active | Active | Active | Active | Active |
| 5.94 | 4.43 | 3.82 | – | – | COc1cc(-c2nc3ccccc3n3c(/N=C/c4ccc(Cl)cc4)c(C#N)nc23)cc(OC)c1OC | – | – | – | – | – |
